Experimental data reported in publication PMC8258697 (The Journal of Biological Chemistry, 2021).

Columns and labels:
PPARγ:RXRα heterodimer = target: T1, PPARγ:RXRα heterodimer (Homo sapiens, UniProt P19793+P37231); assay: PPARγ:RXRα heterodimer formation HTRF assay, sGFP-RXRα LBD titrated against biotinylated PPARγ LBD coupled to Tb-SA; format: binding
T1 construct: His10-tag with TEV site (N, cleaved yes); made in house; host or cells: E. coli T7 express (co-expressed with GroEL/ES)
T1 sequence (P37231 234-505): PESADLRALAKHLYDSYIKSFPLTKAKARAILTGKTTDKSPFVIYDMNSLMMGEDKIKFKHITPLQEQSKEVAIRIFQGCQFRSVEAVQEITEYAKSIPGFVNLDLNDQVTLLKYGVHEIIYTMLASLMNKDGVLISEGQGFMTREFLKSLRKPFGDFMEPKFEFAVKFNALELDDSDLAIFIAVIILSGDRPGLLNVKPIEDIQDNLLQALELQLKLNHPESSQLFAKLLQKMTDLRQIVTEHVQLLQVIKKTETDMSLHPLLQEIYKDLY
T1 sequence (P19793 226-462): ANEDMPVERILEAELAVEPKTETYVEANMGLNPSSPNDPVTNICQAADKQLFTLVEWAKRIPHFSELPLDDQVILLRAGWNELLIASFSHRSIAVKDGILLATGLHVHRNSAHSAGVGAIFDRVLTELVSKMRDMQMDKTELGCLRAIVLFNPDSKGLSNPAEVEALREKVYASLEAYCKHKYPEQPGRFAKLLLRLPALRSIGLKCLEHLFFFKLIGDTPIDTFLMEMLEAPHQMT

PPARγ LBD = target: T2, PPARγ LBD (Homo sapiens, UniProt P37231); assay: Monomer cofactor recruitment HTRF assay: CBP-1 recruitment by isolated sGFP-PPARγ LBD; format: biochemical; conditions: versus 1 μM Rosi
T2 construct: His10-tag with TEV site (N, cleaved yes); made in house; host or cells: E. coli T7 express (co-expressed with GroEL/ES)
T2 sequence (P37231 234-505): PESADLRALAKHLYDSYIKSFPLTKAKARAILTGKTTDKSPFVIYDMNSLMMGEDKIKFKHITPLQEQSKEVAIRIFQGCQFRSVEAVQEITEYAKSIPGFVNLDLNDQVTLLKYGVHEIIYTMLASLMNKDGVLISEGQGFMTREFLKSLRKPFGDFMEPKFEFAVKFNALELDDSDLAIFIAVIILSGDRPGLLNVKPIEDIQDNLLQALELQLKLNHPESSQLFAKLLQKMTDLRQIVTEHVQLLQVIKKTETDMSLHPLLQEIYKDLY

[1] = target: T3, PPARγ LBD in complex with RXRα LBD (Homo sapiens, UniProt P37231); assay: Heterodimer coactivator recruitment HTRF assay: CBP-1 recruitment by PPARγ LBD in complex with sGFP-RXRα LBD total mutant; format: biochemical
T3 construct: His10-tag with TEV site (N, cleaved yes); made in house; host or cells: E. coli T7 express (co-expressed with GroEL/ES)
T3 sequence (P37231 234-505): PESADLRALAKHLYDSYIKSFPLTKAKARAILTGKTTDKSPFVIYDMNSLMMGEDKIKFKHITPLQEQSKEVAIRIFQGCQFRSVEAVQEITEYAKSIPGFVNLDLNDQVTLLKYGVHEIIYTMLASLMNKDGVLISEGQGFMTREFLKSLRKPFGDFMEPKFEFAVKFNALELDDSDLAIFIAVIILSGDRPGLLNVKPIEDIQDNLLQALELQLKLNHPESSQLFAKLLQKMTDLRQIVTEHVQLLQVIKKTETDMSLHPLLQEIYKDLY
T3 sequence (P19793 226-462 V280T/K284E/V298T/F450Y/E453R partner limits assumed): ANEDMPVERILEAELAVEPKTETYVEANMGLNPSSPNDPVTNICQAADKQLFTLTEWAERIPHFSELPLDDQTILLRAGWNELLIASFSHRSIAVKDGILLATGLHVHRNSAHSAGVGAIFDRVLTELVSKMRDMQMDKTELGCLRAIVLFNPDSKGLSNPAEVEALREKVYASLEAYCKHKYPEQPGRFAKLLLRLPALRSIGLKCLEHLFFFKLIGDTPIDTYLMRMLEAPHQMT

PPARγ = conditions: cited from earlier work
RXRα homodimer = target: T4, RXRα homodimer (Homo sapiens, UniProt P19793); assay: RXRα homodimer formation HTRF assay, sGFP-RXRα LBD titrated against biotinylated RXRα LBD (wildtype); format: binding; conditions: 10 μM ligand compared with no ligand
T4 construct: His10-tag with TEV site (N, cleaved yes); made in house; host or cells: E. coli T7 express (co-expressed with GroEL/ES)
T4 sequence (P19793 226-462) 1: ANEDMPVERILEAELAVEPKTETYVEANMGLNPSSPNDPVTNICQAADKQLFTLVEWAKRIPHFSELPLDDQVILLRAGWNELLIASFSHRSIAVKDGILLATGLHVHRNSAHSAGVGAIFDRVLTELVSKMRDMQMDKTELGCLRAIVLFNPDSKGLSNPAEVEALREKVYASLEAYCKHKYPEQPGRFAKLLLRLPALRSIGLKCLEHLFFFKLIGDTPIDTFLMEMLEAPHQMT
T4 sequence (P19793 226-462) 2: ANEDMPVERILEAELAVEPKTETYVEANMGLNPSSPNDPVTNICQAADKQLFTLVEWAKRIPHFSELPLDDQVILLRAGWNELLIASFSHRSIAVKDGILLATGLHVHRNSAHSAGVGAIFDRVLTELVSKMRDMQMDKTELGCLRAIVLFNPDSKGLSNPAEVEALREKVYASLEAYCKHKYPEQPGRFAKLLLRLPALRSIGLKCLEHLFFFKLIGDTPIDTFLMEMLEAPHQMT

[2] = target: T3, PPARγ LBD in complex with RXRα LBD; conditions: cited from earlier work
RXRα LBD wildtype = conditions: cited from earlier work

With `O=C(Nc1ccccc1)c1cc([N+](=O)[O-])ccc1Cl` [GW9662] the “effect on PPARγ:RXRα heterodimer formation” value (PPARγ:RXRα heterodimer; 1 μM ligand compared with apo) was “did not affect heterodimer formation”, the “Monomer recruitment, antagonist mode, Max inhibition (%)” value (PPARγ LBD) was 62% and the IC50 (PPARγ LBD; read-out: Monomer recruitment, antagonist mode, Potency (IC50)) was 1.2 ± 0.07 µM. The “Dimer recruitment, antagonist mode, Max inhibition (%)” value ([1]; versus 1 μM Rosi) was 52%.
For `O=S(=O)(Nc1cc(Cl)c(Oc2cnc3ccccc3c2)c(Cl)c1)c1ccc(Cl)cc1Cl` [INT131], the “degree of activation of PPARγ compared with rosiglitazone” value (PPARγ) is given as 30%.
For `O=C(O)c1c(Sc2ccccc2)c2cc(Cl)ccc2n1Cc1ccccc1` [SR145], the “degree of activation of PPARγ compared with rosiglitazone” value (PPARγ) is listed as ~ 35%.
With `O=C(O)Cc1cc(I)c(Oc2cc(I)c(O)c(I)c2)c(I)c1` [TETRAC, 3,3',5,5'-tetraiodothyroacetic acid] the “effect on PPARγ:RXRα heterodimer formation” value (PPARγ:RXRα heterodimer; 10 μM ligand compared with no ligand) was “strongly reduced the apparent Kd”, the “reduction in the apparent Kd of dimer formation” value (PPARγ:RXRα heterodimer; 10 μM ligand in comparison with dimethyl sulfoxide control) was 4 fold and the “effect on RXRα homodimer formation” value (RXRα homodimer) was “slightly but significantly weakened”. For the same compound, the “enhancement of CBP-1 recruitment in comparison with 1 μM rosiglitazone” value [2] was “approximately 50%”, the “activation of RXRα in comparison with 1 μM SR11237” value (RXRα LBD wildtype) was “below 10%” and the EC50 (RXRα LBD wildtype; read-out: EC50 of activation of RXRα) was about 10 µM.
In the case of GW1929, the “reduction of the apparent Kd of heterodimer formation” value (PPARγ:RXRα heterodimer; 1 μM ligand compared with apo) is reported as 3 fold, the “change of EC50 in the heterodimer setting in comparison with monomeric PPARγ LBD” value [1] is reported as “about 2 fold” and the “Dimer recruitment, agonist mode, Efficacy (%)” value ([1]; normalized to rosiglitazone in the heterodimer) is reported as 118%.
